One assay has as its target T1, FAAH (Homo sapiens, UniProt O00519).
T1 sequence (O00519 1-579): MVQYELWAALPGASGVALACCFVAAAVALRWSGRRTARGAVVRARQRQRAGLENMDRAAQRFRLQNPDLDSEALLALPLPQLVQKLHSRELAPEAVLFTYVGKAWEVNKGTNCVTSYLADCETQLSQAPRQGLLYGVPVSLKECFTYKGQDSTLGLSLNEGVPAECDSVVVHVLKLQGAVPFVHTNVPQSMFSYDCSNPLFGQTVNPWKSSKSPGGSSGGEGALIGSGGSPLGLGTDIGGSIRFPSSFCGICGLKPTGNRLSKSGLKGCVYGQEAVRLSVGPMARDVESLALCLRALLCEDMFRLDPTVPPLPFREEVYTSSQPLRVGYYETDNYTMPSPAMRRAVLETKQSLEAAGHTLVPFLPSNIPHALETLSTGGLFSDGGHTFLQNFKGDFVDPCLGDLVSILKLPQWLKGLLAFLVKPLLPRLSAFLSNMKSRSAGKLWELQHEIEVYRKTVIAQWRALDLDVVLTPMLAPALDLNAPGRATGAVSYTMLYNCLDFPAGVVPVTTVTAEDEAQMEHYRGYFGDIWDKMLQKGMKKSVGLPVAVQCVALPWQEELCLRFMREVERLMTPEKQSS
Nature of the assay: Assay Method 1: FAAH assay, 3H-anandamide hydrolysis in homogenate of T84 cells or SK-N-MC cells transfected with human FAAH.

Another assay concerns the target T2, Rat FAAH-1 (Rattus norvegicus, UniProt P97612).
T2 sequence (P97612 1-579): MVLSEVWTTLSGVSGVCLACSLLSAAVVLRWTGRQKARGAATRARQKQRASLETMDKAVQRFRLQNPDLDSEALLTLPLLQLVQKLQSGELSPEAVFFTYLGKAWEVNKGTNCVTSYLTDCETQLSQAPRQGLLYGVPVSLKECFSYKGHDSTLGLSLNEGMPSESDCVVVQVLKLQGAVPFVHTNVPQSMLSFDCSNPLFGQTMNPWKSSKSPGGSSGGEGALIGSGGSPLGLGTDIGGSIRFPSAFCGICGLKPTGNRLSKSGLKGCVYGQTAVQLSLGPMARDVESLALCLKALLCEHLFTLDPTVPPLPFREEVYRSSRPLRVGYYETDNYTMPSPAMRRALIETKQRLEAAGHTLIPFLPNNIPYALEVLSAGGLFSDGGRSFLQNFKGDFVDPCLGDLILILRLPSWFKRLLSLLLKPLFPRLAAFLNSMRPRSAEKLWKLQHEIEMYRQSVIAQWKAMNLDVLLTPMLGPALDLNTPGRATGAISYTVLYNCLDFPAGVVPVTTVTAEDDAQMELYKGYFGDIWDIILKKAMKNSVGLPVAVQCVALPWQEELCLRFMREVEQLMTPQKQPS
As to the kind of experiment: Assay Method 2: rat FAAH-1 assay, 3H-anandamide hydrolysis in homogenate of SK-N-MC cells transfected with rat FAAH.

Structures can show the parent of a compound that is named as a salt.

Consider `CCOc1ccc(-c2cc(NC[C@H](O)c3ccccc3)ncn2)cc1C` [Example 31, (1R)-2-{[6-(4-Ethoxy-3-methylphenyl)pyrimidin-4-yl]amino}-1-Phenylethanol trifluoroacetic acid salt], for which the IC50 (as a rule, the concentration at which inhibition is half-maximal) against FAAH stood at 3 nM; against Rat FAAH-1, 21 nM.
For `O[C@@H](CNc1cc(-c2ccc(OCC3CC3)cc2)ncn1)c1ccccc1` [Example 32, (1R)-2-({6-[4-(Cyclopropylmethoxy)phenyl]pyrimidin-4-yl}amino)-1-phenylethanol trifluoroacetic acid salt], the IC50 at FAAH amounted to 92 nM; against Rat FAAH-1, 1000 nM.
With `CCCCOc1ccc(-c2cc(NC[C@H](O)c3ccccc3)ncn2)cc1F` [Example 33, (1R)-2-{[6-(4-Butoxy-3-fluorophenyl)pyrimidin-4-yl]amino}-1-phenylethanol trifluoroacetic acid salt], the results for the IC50 against FAAH and against Rat FAAH-1 were 270 nM and 2000 nM, respectively.
In the same order, the values of `CCCOc1ccc(-c2cc(NC[C@H](O)c3ccccc3)ncn2)cc1F` [Example 35, (1R)-2-{[6-(3-Fluoro-4-propoxyphenyl)pyrimidin-4-yl]amino}-1-Phenylethanol trifluoroacetic acid salt] are 43 nM and 180 nM.
In the same order, the values of `CC(C)Oc1ccc(-c2cc(NC[C@H](O)c3ccccc3)ncn2)cc1F` [Example 36, (1R)-2-({6-[3-Fluoro-4-(1-methylethoxy)phenyl]pyrimidin-4-yl}amino)-1-phenylethanol trifluoroacetic acid salt] are 8 nM and 20 nM.
In the same order, the values of `CC(C)COc1ccc(-c2cc(NC[C@H](O)c3ccccc3)ncn2)cc1` [Example 37, (1R)-2-({6-[4-(2-Methylpropoxy)phenyl]pyrimidin-4-yl}amino)-1-phenylethanol trifluoroacetic acid salt] are 400 nM and 8000 nM.
For `Cc1ccc(-c2cc(NC[C@H](O)c3ccccc3)ncn2)cc1Cl` [Example 39, (1R)-2-{[6-(3-Chloro-4-methylphenyl)pyrimidin-4-yl]amino}-1-phenylethanol trifluoroacetic acid salt], the values for the IC50 against FAAH and against Rat FAAH-1 were 18 nM and 60 nM, respectively.
With `Cc1cc(C)cc(-c2cc(NC[C@H](O)c3ccccc3)ncn2)c1` [Example 40, (1R)-2-{[6-(3,5-Dimethylphenyl)pyrimidin-4-yl]amino}-1-phenylethanol trifluoroacetic acid salt], the values for the IC50 against FAAH and against Rat FAAH-1 were 766 nM and greater than 10000 nM, respectively.
In the same order, the values of `O[C@@H](CNc1cc(-c2cc(F)cc(C(F)(F)F)c2)ncn1)c1ccccc1` [Example 42, (1R)-2-({6-[3-Fluoro-5-(trifluoromethyl)phenyl]pyrimidin-4-yl}amino)-1-phenylethanol trifluoroacetic acid salt] are 206 nM and 793 nM.
On to `O[C@@H](CNc1cc(-c2cc(F)cc(Cl)c2)ncn1)c1ccccc1` [Example 43, (1R)-2-{[6-(3-Chloro-5-fluorophenyl)pyrimidin-4-yl]amino}-1-phenylethanol trifluoroacetic acid salt], for which the IC50 on FAAH turned out to be 88 nM; against Rat FAAH-1 it was 446 nM.
In the same order, the values of `CCCOc1ccc(-c2cc(NC[C@H](O)c3ccccc3)ncn2)cc1` [Example 44, (1R)-1-Phenyl-2-{[6-(4-propoxyphenyl)pyrimidin-4-yl]amino}ethanol trifluoroacetic acid salt] are 50 nM and 600 nM.
In the same order, the values of `O[C@@H](CNc1cc(-c2ccc3nonc3c2)ncn1)c1ccccc1` [Example 45, (1R)-2-{[6-(2,1,3-Benzoxadiazol-5-yl)pyrimidin-4-yl]amino}-1-Phenylethanol trifluoroacetic acid salt] are 150 nM and 600 nM.
In the same order, the values of `Cc1cc(-c2cc(NC[C@H](O)c3ccccc3)ncn2)ccc1OC(C)C` [Example 46, (1R)-2-({6-[3-Methyl-4-(1-methylethoxy)phenyl]pyrimidin-4-yl}amino)-1-phenylethanol] are 13 nM and 26 nM.
As for `Cc1c(NC[C@H](O)c2ccccc2)ncnc1-c1ccc(C(F)(F)F)c(Cl)c1` [Example 47, (1R)-2-({6-[3-Chloro-4-(trifluoromethyl)phenyl]-5-methylpyrimidin-4-yl}amino)-1-phenylethanol trifluoroacetic acid salt], the IC50 against FAAH is 26 nM; against Rat FAAH-1, 510 nM.
For `Cc1c(NC[C@H](O)c2ccccc2)ncnc1-c1ccc(C(F)(F)F)c(F)c1` [Example 48, (1R)-2-({6-[3-Fluoro-4-(trifluoromethyl)phenyl]-5-methylpyrimidin-4-yl}amino)-1-phenylethanol trifluoroacetic acid salt], the IC50 turned out to be 105 nM against FAAH and 1500 nM at Rat FAAH-1.
In the same order, the values of `O[C@@H](CNc1cc(-c2cc(F)c(OC(F)F)c(F)c2)ncn1)c1ccccc1` [Example 49, (1R)-2-({6-[4-(Difluoromethoxy)-3,5-difluorophenyl]pyrimidin-4-yl}amino)-1-phenylethanol trifluoroacetic acid salt] are 2 nM and 9 nM.
In the same order, the values of `CC(C)(C#N)c1ccc(-c2cc(NC[C@H](O)c3ccccc3)ncn2)cc1` [Example 50, 2-[4-(6-{[(2R)-2-Hydroxy-2-phenylethyl]amino}pyrimidin-4-yl)phenyl]-2-methylpropanenitrile trifluoroacetic acid salt] are 92 nM and 985 nM.
In the same order, the values of `O[C@@H](CNc1cc(-c2ccc3cc[nH]c3c2)ncn1)c1ccccc1` [Example 53, (1R)-2-{[6-(1H-Indol-6-yl)pyrimidin-4-yl]amino}-1-phenylethanol trifluoroacetic acid salt] are 765 nM and greater than 10000 nM.
In the case of `O[C@@H](CNc1cc(-c2cc(F)c(F)c(F)c2)ncn1)c1ccccc1` [Example 54, (1R)-1-Phenyl-2-{[6-(3,4,5-trifluorophenyl)pyrimidin-4-yl]amino}ethanol trifluoroacetic acid salt], the figures for the IC50 on FAAH and at Rat FAAH-1 were 277 nM and 443 nM, respectively.
In the same order, the values of `Cn1c(-c2cc(NC[C@H](O)c3ccccc3)ncn2)cc2ccccc21` [Example 55, (1R)-2-{[6-(1-Methyl-1H-indol-2-yl)pyrimidin-4-yl]amino}-1-phenylethanol trifluoroacetic acid salt] are 20 nM and 1700 nM.
In the same order, the values of `Cc1ccc2sc(-c3cc(NC[C@H](O)c4ccccc4)ncn3)cc2c1` [Example 56, (1R)-2-{[6-(5-Methyl-1-benzothiophen-2-yl)pyrimidin-4-yl]amino}-1-phenylethanol] are 2 nM and 40 nM.
In the same order, the values of `O=C(c1ccccc1)c1ccc(-c2cc(NC[C@H](O)c3ccccc3)ncn2)cc1` [Example 57, [4-(6-{[(2R)-2-Hydroxy-2-phenylethyl]amino}pyrimidin-4-yl)phenyl](phenyl)methanone trifluoroacetic acid salt] are 29 nM and 535 nM.
In the case of `O[C@@H](CNc1cc(-c2cc(F)cc(F)c2)ncn1)c1ccccc1` [Example 58, (1R)-2-{[6-(3,5-Difluorophenyl)pyrimidin-4-yl]amino}-1-phenylethanol trifluoroacetic acid salt], the IC50 on FAAH was found to be 104 nM; at Rat FAAH-1, 470 nM.
In the same order, the values of `O[C@@H](CNc1cc(-c2ccc(F)c(F)c2)ncn1)c1ccccc1` [Example 59, (1R)-2-{[6-(3,4-Difluorophenyl)pyrimidin-4-yl]amino}-1-phenylethanol trifluoroacetic acid salt] are 307 nM and 1000 nM.
As for `CSc1nc(NC[C@H](O)c2ccccc2)cc(-c2ccc(C(F)(F)F)c(Cl)c2)n1` [Example 60, (1R)-2-({6-[3-Chloro-4-(trifluoromethyl)phenyl]-2-(methylsulfanyl)pyrimidin-4-yl}amino)-1-phenylethanol trifluoroacetic acid salt], the IC50 amounted to 6 nM on FAAH and 28 nM against Rat FAAH-1.
